Results taken from paper PMC7570921, “Cathepsin B-Cleavable Cyclopeptidic Chemotherapeutic Prodrugs” (Molecules, 2020).
Starred links: 1 amine or outer side, 2 acyl side, 3 side chain; linkers in the order of their positions; H or OH if unused. Residues, ends and D or L forms follow the SMILES beside them. *: point of attachment. Doxorubicin(3'-N) = COc1cccc2c1C(=O)c1c(O)c3c(c(O)c1C2=O)C[C@@](O)(C(=O)CO)C[C@@H]3O[C@H]1C[C@H](N*)[C@H](O)[C@H](C)O1; DBCO = C1#Cc2ccccc2N(*)Cc2ccccc21; Suc = O=C(CCC(=O)[*:2])[*:1]

Columns and labels:
[1] = test system: HT1080 human fibrosarcoma cells; experiment: WST-1 cell proliferation / cytotoxicity assay; format: cell-based; conditions: for Cytotoxicity (in words) / Survival Rate (SR): HT1080, 72 h; for Cytotoxicity (in words): WST-1, 5-50 μM DOX eq (Figure S14), n = 3
Procedure: Human fibrosarcoma cell line HT1080 (ATCC® CCL-121™, Manassas, VA, USA) was grown as monolayers in DMEM (1x) + GlutaMAX™-1 medium supplemented with 10% fetal calf serum and […] streptomycin and 100 IU/mL penicillin. Cells were cultivated at 37 °C in humidified 95% air and 5% CO2 atmosphere and routinely maintained by serial passage in a new medium. Prior to experiments, cells were tested for mycoplasma contamination with the MycoAlert™ kit.
Cells were seeded at a density of 8000 cells/well in a 96-well plate (clear-bottom black plate, 3603, Corning, Luzern, Switzerland) one day prior to the experiment. […] Cell proliferation assays were performed at 72 h upon incubation using a Cell Proliferation reagent (WST-1) following the manufacturer’s recommendations. The absorption was measured at 450 nm with a plate reader (Safire). The percentage of cell survival was calculated with respect to control samples treated with either medium or a solution of DMSO (50%) in serum-free medium, as follows: [A (test-conc.) − A (100% dead)/A (100% viable) − A (100% dead)] × 100. Mean values from three wells were determined and expressed as ± S.D. All assays were done in triplicates.

[2] = test system: HT1080 cells; experiment: Confocal fluorescence microscopy, co-localization (PCC) of DOX fluorescence; format: cell-based, human; conditions: 24 h incubation, 0.3 μM free DOX; mean ± SD of three images
Procedure: HT1080 cells were seeded one day before the experiment at a density of 78,500 cells in 1.3 mL of complete medium into a glass-bottom microwell dish (35 mm petri dish, 14 mm microwell, MatTek Corporation). […] Control cells were incubated in serum-free medium under the same experimental conditions. Cells were then washed with DPBS and incubated for 20 min with 1 μg/mL Hoechst 33,342 stain and 70 nM of LysoTracker® Green DND-26. Prior to imaging, cells were washed with DPBS and serum-free medium was put into every dish. Fluorescence imaging was carried our using a Zeiss LSM780 (Zeiss, Jena, Germany) inverted confocal microscope. The microscopic images were using 405 and 488 nm lasers as excitation wavelengths, 495–525, 575–625 and 415–492 nm emission filters, and an objective lens, Plan-Aprochromat 63 x/1.4 oil DIC M27. During the image acquisition time, slides were kept at 37 °C in a humidified chamber (INUBTF-WSKM-F1, Tokai Hit, Japan). ZEN 2 software (Zeiss, Jena, Germany) was used for image processing. […] […] PCC was calculated in regions of interest (ROI), separately defined for each image by masking the entire dataset with the red channel (DOX fluorescence). The value of PCC for each experiment is presented as mean ± S.D. calculated from three separate images.

[3] = test system: HT1080 cells; experiment: Flow cytometry of intracellular and nuclear DOX accumulation; format: cell-based, human; conditions: 24 h, 0.3 μM (DOX eq), isolated nuclei, triplicates
Procedure: (§1) HT1080 cells were seeded in 6-well plates (flat-bottom cell culture microplate, 3505, Corning, Luzern, Switzerland) at a density of 150,000 cells/well and were left to attach overnight. […] Cells were incubated for 24, 48 and 72 h in the dark at 37 °C. Cells were washed 3 times with DPBS, detached from the surface with a cell-scraper and resuspended in 500 μL of DPBS. Cells were analyzed immediately on a BD LSR Fortessa cell analyzer (BD Biosciences, San Jose, CA, USA). […] For this purpose, 1 mM Tris buffer was prepared and the pH was adapted to 7.6 with 30% HCl. Igepal CA-630 and Hoechst 3342 (5 μg/mL final concentration) were added, and the reagent was filtered. […] Samples were incubated at 4 °C for 1 h and analyzed with a BDLSR Fortessa cell analyzer. Acquisition data were analyzed using FlowJo V10 software (FLOWJO, LCC, Ashland, OR, USA). For cell cycle analysis, the Dean-Jett-Fox model was used. All measurements were done in triplicates. Mean values and S.D. were calculated and plotted for each tested compound. Fluorescence of control cells incubated in serum-free medium was subtracted from acquired DOX-emitted fluorescence.

[4] = test system: HT1080 cells; experiment: Cell cycle analysis by flow cytometry (Hoechst 33342, Dean-Jett-Fox model); format: cell-based, human
Procedure: as §1, with “compound.” for “compound. Fluorescence of control cells incubated in serum-free medium was subtracted from acquired DOX-emitted fluorescence.”

[5] = 24 h, 0.3 μM (DOX eq), mean ± S.D., n = 3
[6] = 48 hours, equimolar concentration (DOX eq)
[7] = 72 hours, equimolar concentration (DOX eq)

COc1cccc2c1C(=O)c1c(O)c3c(c(O)c1C2=O)C[C@@](O)(C(=O)CO)C[C@@H]3O[C@H]1C[C@H](NC(=O)CNC(=O)[C@H](C)NC(=O)[C@H](C)NC(=O)[C@H](CCCNC(=N)N)NC(=O)[C@H](CCCNC(=N)N)NC(=O)CNC(=O)[C@H](C)NC(=O)CNC(=O)CCC(=O)N2Cc3ccccc3C#Cc3ccccc32)[C@H](O)[C@H](C)O1 ({DBCO-Suc}-GAGRRAAG-{Doxorubicin(3'-N)})
Cytotoxicity (in words) [1]: significant cytotoxicity

COc1cccc2c1C(=O)c1c(O)c3c(c(O)c1C2=O)C[C@@](O)(C(=O)CO)C[C@@H]3O[C@H]1C[C@H](N)[C@H](O)[C@H](C)O1.Cl [DOX, Doxorubicin hydrochloride salt]
Survival Rate (SR) ([1]; WST-1, [Dox] 0.01 mM as printed, SD 9.7 wrapped): 86.4% | Survival Rate (SR) ([1]; WST-1, [Dox] 0.05 mM as printed, SD 10.6 wrapped): 81.7% | Survival Rate (SR) ([1]; WST-1, [Dox] 0.10 mM as printed, SD 9.7 wrapped): 69.9% | Survival Rate (SR) ([1]; WST-1, [Dox] 0.15 mM as printed, SD 7.3 wrapped): 53.7% | Survival Rate (SR) ([1]; WST-1, [Dox] 0.2 mM as printed, SD 4.7 wrapped): 34.6% | Survival Rate (SR) ([1]; WST-1, [Dox] 0.4 mM as printed, SD 1.3 wrapped): 6.9% | Survival Rate (SR) ([1]; WST-1, [Dox] 0.5 mM as printed, SD 0.4 wrapped): 1.3% | Survival Rate (SR) ([1]; WST-1, [Dox] 0.6 mM as printed, SD 0.5 wrapped): 0.4% | Survival Rate (SR) ([1]; WST-1, [Dox] 0.8 mM as printed, SD 0.7 wrapped): 0% | Survival Rate (SR) ([1]; WST-1, [Dox] 1.0 mM as printed, SD 0.5 wrapped): 0.4% | IC50 ([1]; HT1080, 72 h incubation, WST-1, free DOX (data not shown)): 160 nM | PCC between DOX and Hoechst 33342 [2]: 0.41 ± 0.10 | DOX accumulation in the nucleus [3]: significant DOX accumulation in the nucleus | % G1 [4, 5]: 30.4 ± 2.3% | % S [4, 5]: 36.7 ± 11.9% | % G1 [4, 6]: 29.2 ± 1.5% | % G2 [4, 6]: 33.6 ± 5.7% | % S [4, 6]: 32.3 ± 4.4% | % G1 [4, 7]: 32.6 ± 3.2% | % G2 [4, 7]: 27.3 ± 8.1% | % S [4, 7]: 35.8 ± 6.7%

PEG10-GAGRRAAG-DOX
Cytotoxicity (in words) [1]: no cytotoxicity
